Results on 14 compounds are retold here after patent US6949579B2, “Aminoindazole derivatives and intermediates, preparation thereof, and pharmaceutical compositions thereof” (Aventis Pharma S.A., priority 2002, dated 2005).

Molecules are shown by their SMILES.

In turn, `CCCC(=O)Nc1n[nH]c2c(F)c(F)c(Br)cc12` had a melting point of 220 °C. Compound `CN1CCN(CC(=O)Nc2n[nH]c3cc(Cl)ccc23)CC1` displayed a melting point of 165 °C. In the case of `CCCC(=O)Nc1n[nH]c2ccc(C(F)(F)F)cc12` [Example 22, N-[5-(trifluoromethyl)-1H-indazol-3-yl]butanamide] it was 230 °C; in that of `O=C(Nc1n[nH]c2ccc(NS(=O)(=O)c3cccc(F)c3)cc12)c1ccccc1` [Example 38, N-[5-[[(3-fluorophenyl)sulphonyl]amino]-1H-indazol-3-yl]benzamide], 225 °C. The compound `CCCC(=O)Nc1n[nH]c2cc(Br)c(Br)cc12` [Example 70, N-[5,6-dibromo-1H-indazol-3-yl]butanamide] gave a melting point of 250 °C. The value for `O=C(CN1CCCCC1)Nc1n[nH]c2cc(Cl)ccc12` [Example 76, N-(6-chloro-1H-indazol-3-yl)-1-piperidineacetamide] was 153 °C. In the case of `O=C(CNC1CCCCC1)Nc1n[nH]c2cc(Cl)ccc12` [Example 79, N-(6-chloro-1H-indazol-3-yl)-2-(cyclohexylamino)acetamide] it was 170 °C. As to `O=C(CNCc1ccccc1)Nc1n[nH]c2cc(Cl)ccc12` [Example 80, 2-[(phenylmethyl)amino]-N-(6-chloro-1H-indazol-3-yl)acetamide], the melting point came to 156 °C.

Turning to `O=C(CN1CCCC1)Nc1n[nH]c2cc(Cl)ccc12` [Example 85, N-(6-chloro-1H-indazol-3-yl)-1-pyrrolidineacetamide], the melting point is 168 °C. Compound `CN(C)CCNCC(=O)Nc1n[nH]c2cc(Cl)ccc12` [Example 86, N-(6-chloro-1H-indazol-3-yl)-2-[[2-(dimethylamino)ethyl]amino]acetamide] displayed a melting point of 104 °C. The value for `CCCC(=O)Nc1n[nH]c2c(F)c(F)c([N+](=O)[O-])cc12` [Example 106, N-(6,7-difluoro-5-nitro-1H-indazol-3-yl)butanamide] was 255 °C; that for `CCCC(=O)Nc1n[nH]c2c(F)c(N3CCOCC3)c([N+](=O)[O-])cc12` [Example 112, N-(7-fluoro-5-nitro-6-morpholino-1H-indazol-3-yl)butanamide] was 250 °C.

The compound `CCCC(=O)Nc1n[nH]c2c(F)c(N3CCOCC3)c(N)cc12` [Example 113, N-(7-fluoro-5-amino-6-morpholino-1H-indazol-3-yl)butanamide] yielded a melting point of 180 °C. In turn, `O=C(CN1CCCCC1)Nc1n[nH]c2c(F)c(F)ccc12` [Example 118, N-(6,7-difluoro-1H-indazol-3-yl)-1-piperidineacetamide] gave a melting point of 158 °C.

For orientation: melting point means the temperature, or range, at which the solid turns liquid.
